Assay [1] deals with Hepatitis C virus. Briefly: Antiviral activity against Hepatitis C virus genotype 1b Con1 infected in human HuH7 cells assessed as GAPDH RNA or 18S rRNA level after 3 days selected with 40 nM HCV-796 and 800 nM boceprevir by qRT-PCR analysis relative to control. Type of assay: functional, organism-based, Hepacivirus hominis, Huh-7.
Assay [2] deals with Hepatitis C virus. Briefly: Antiviral activity against Hepatitis C virus genotype 1b Con1 infected in human HuH7 cells assessed as GAPDH RNA or 18S rRNA level after 3 days selected with 40 nM HCV-796 and 800 nM boceprevir by qRT-PCR analysis. To be noted: Con1, Huh-7, 72 h. Type of assay: functional, organism-based, Hepacivirus hominis.
The test system of assay [3] is Hepatitis C virus. Briefly: Antiviral activity against Hepatitis C virus genotype 1b Con1 infected in human HuH7 cells assessed as GAPDH RNA or 18S rRNA level after 3 days by qRT-PCR analysis. As to conditions: Con1, Huh-7, 72 h. Type of assay: functional, organism-based, Hepacivirus hominis.
Assay [4] relates to Hepatitis C virus. Briefly: Antiviral activity against Hepatitis C virus genotype 1b Con1 harboring C316Y and C445F mutations mutant infected in human HuH7.5 cells after 72 hrs by gaussia luciferase reporter assay relative to control. Type of assay: functional, Hepacivirus hominis, Huh-7.
Assay [5] deals with Hepatitis C virus. Briefly: Antiviral activity against Hepatitis C virus genotype 1b Con1 harboring V170A and C316Y mutations mutant infected in human HuH7.5 cells after 72 hrs by gaussia luciferase reporter assay relative to control. Type of assay: functional, Hepacivirus hominis, Huh-7. (In general: Reporter assays use an easily measured gene product as a stand-in for the process of interest.)

Assay [6] has as its system Hepatitis C virus. Briefly: Antiviral activity against Hepatitis C virus genotype 1b Con1 harboring NS5B C445F mutant infected in human HuH7.5 cells after 72 hrs by gaussia luciferase reporter assay relative to control. Type of assay: functional, Hepacivirus hominis, Huh-7.
Assay [7] has as its system Hepatitis C virus. Briefly: Antiviral activity against Hepatitis C virus genotype 1b Con1 harboring NS5B I424V mutant infected in human HuH7.5 cells after 72 hrs by gaussia luciferase reporter assay relative to control. Format: functional, Hepacivirus hominis, Huh-7.
The subject of assay [8] is Hepatitis C virus. Briefly: Antiviral activity against Hepatitis C virus genotype 1b Con1 harboring NS5B C316Y mutant infected in human HuH7.5 cells after 72 hrs by gaussia luciferase reporter assay relative to control. Type of assay: functional, Hepacivirus hominis, Huh-7.
Assay [9] deals with Hepatitis C virus. Briefly: Antiviral activity against Hepatitis C virus genotype 1b Con1 harboring NS3 K583T mutant infected in human HuH7.5 cells after 72 hrs by gaussia luciferase reporter assay relative to control. Format: functional, Hepacivirus hominis, Huh-7.
For assay [10], the system named is Hepatitis C virus. Briefly: Antiviral activity against Hepatitis C virus genotype 1b Con1 harboring NS3 G282S mutant infected in human HuH7.5 cells after 72 hrs by gaussia luciferase reporter assay relative to control. Format: functional, Hepacivirus hominis, Huh-7.
Assay [11] has as its system Hepatitis C virus. Briefly: Antiviral activity against Hepatitis C virus genotype 1b Con1 harboring NS3 E176G mutant infected in human HuH7.5 cells after 72 hrs by gaussia luciferase reporter assay relative to control. Format: functional, Hepacivirus hominis, Huh-7.
For assay [12], the system named is Hepatitis C virus. Briefly: Antiviral activity against Hepatitis C virus genotype 1b Con1 harboring NS3 V170A mutant infected in human HuH7.5 cells after 72 hrs by gaussia luciferase reporter assay relative to control. Type of assay: functional, Hepacivirus hominis, Huh-7.
In assay [13] the test system is Hepatitis C virus. Briefly: Antiviral activity against Hepatitis C virus genotype 1b Con1 harboring NS3 V158M mutant infected in human HuH7.5 cells after 72 hrs by gaussia luciferase reporter assay relative to control. Type of assay: functional, Hepacivirus hominis, Huh-7.
For assay [14], the system named is Hepatitis C virus. Briefly: Antiviral activity against Hepatitis C virus genotype 1b Con1 infected in human HuH7.5 cells after 72 hrs by gaussia luciferase reporter assay. Type of assay: functional, organism-based, Hepacivirus hominis. To be noted: Con1, Huh-7, 72 h.
The test system of assay [15] is Hepatitis C virus. Briefly: Antiviral activity against Hepatitis C virus genotype 1b Con1 infected in human HuH7 cells assessed as GAPDH RNA or 18S rRNA level after 3 days selected with […] and 400 nM boceprevir by qRT-PCR analysis relative to control. Format: functional, Hepacivirus hominis, Huh-7. (In general: Quantitative PCR measures a nucleic acid by following its amplification.)

The subject of assay [16] is Hepatitis C virus. Briefly: Antiviral activity against Hepatitis C virus genotype 1b Con1 infected in human HuH7 cells assessed as GAPDH RNA or 18S rRNA level after 3 days selected with […] and 400 nM boceprevir by qRT-PCR analysis. Format: functional, organism-based, Hepacivirus hominis. To be noted: Con1, Huh-7, 72 h.
For assay [17], the system named is Hepatitis C virus. Briefly: Antiviral activity against Hepatitis C virus genotype 1b Con1 harboring NS3 V158M mutant infected in human HuH7.5 cells after 72 hrs by gaussia luciferase reporter assay. As to conditions: Con1, Huh-7, 72 h. Type of assay: functional, organism-based, Hepacivirus hominis.
The test system of assay [18] is Hepatitis C virus. Briefly: Antiviral activity against Hepatitis C virus genotype 1b Con1 harboring NS3 V170A mutant infected in human HuH7.5 cells after 72 hrs by gaussia luciferase reporter assay. As to conditions: Con1, Huh-7, 72 h. Type of assay: functional, organism-based, Hepacivirus hominis.
Assay [19] concerns Hepatitis C virus. Briefly: Antiviral activity against Hepatitis C virus genotype 1b Con1 harboring NS3 E176G mutant infected in human HuH7.5 cells after 72 hrs by gaussia luciferase reporter assay. Format: functional, organism-based, Hepacivirus hominis. As to conditions: Con1, Huh-7, 72 h.
The subject of assay [20] is Hepatitis C virus. Briefly: Antiviral activity against Hepatitis C virus genotype 1b Con1 harboring NS3 G282S mutant infected in human HuH7.5 cells after 72 hrs by gaussia luciferase reporter assay. Type of assay: functional, organism-based, Hepacivirus hominis. To be noted: Con1, Huh-7, 72 h.
Assay [21] concerns Hepatitis C virus. Briefly: Antiviral activity against Hepatitis C virus genotype 1b Con1 harboring NS3 K583T mutant infected in human HuH7.5 cells after 72 hrs by gaussia luciferase reporter assay. Type of assay: functional, organism-based, Hepacivirus hominis. As to conditions: Con1, Huh-7, 72 h.
Assay [22] relates to Hepatitis C virus. Briefly: Antiviral activity against Hepatitis C virus genotype 1b Con1 harboring NS5B C316Y mutant infected in human HuH7.5 cells after 72 hrs by gaussia luciferase reporter assay. Type of assay: functional, organism-based, Hepacivirus hominis. To be noted: Con1, Huh-7, 72 h.
In assay [23] the test system is Hepatitis C virus. Briefly: Antiviral activity against Hepatitis C virus genotype 1b Con1 harboring NS5B I424V mutant infected in human HuH7.5 cells after 72 hrs by gaussia luciferase reporter assay. Format: functional, organism-based, Hepacivirus hominis. As to conditions: Con1, Huh-7, 72 h.
Assay [24] relates to Hepatitis C virus. Briefly: Antiviral activity against Hepatitis C virus genotype 1b Con1 harboring NS5B C445F mutant infected in human HuH7.5 cells after 72 hrs by gaussia luciferase reporter assay. To be noted: Con1, Huh-7, 72 h. Type of assay: functional, organism-based, Hepacivirus hominis.
The subject of assay [25] is Hepatitis C virus. Briefly: Antiviral activity against Hepatitis C virus genotype 1b Con1 harboring V170A and C316Y mutations mutant infected in human HuH7.5 cells after 72 hrs by gaussia luciferase reporter assay. As to conditions: Con1, Huh-7, 72 h. Type of assay: functional, organism-based, Hepacivirus hominis.
The test system of assay [26] is Hepatitis C virus. Briefly: Antiviral activity against Hepatitis C virus genotype 1b Con1 harboring C316Y and C445F mutations mutant infected in human HuH7.5 cells after 72 hrs by gaussia luciferase reporter assay. Format: functional, organism-based, Hepacivirus hominis. As to conditions: Con1, Huh-7, 72 h.

Broadly, the EC50 is the concentration that produces a half-maximal response. Consider `CO[C@H]1/C=C\C=C(/C)C(=O)NC2=CC(=O)C(NCCN(C)C)=C(C[C@@H](C)C[C@H](OC)[C@H](O)[C@@H](C)/C=C(\C)[C@@H]1OC(N)=O)C2=O` [ALVESPIMYCIN], for which the “Ratio IC50” value in assay [1] was found to be 3. In addition, the EC50 in [2] was found to be 3.1 nM; in assay [3], 1.2 nM.
Taken in the same sequence, the figures for `COC1=C2C[C@@H](C)C[C@H](OC)[C@H](O)[C@@H](C)/C=C(\C)[C@H](OC(N)=O)[C@@H](OC)/C=C\C=C(/C)C(=O)NC(=CC1=O)C2=O` [GELDANAMYCIN] were 5, 1.2 nM and 0.25 nM.
Regarding `CC(=O)c1cc(F)c(Cl)cc1NCC(=O)Nc1ccccc1C(=O)O`, the “Ratio IC50” value in assay [1] is on record as greater than 15. Besides, the EC50 in assay [2] was greater than 20000 nM; in assay [3], 1310 nM.
Turning to `CNC(=O)c1c(-c2ccc(F)cc2)oc2cc(N(CCO)S(C)(=O)=O)c(C3CC3)cc12` [NESBUVIR], the “Ratio IC50” value was found to be 1834 in assay [4]; 95 in [5]; 8 in assay [6]; 1 in assay [7]; 138 in assay [8]; 1 in assay [9]. In addition, the “Ratio IC50” value is 2 in assay [10]; 3 in assay [11]; 1 in [12]; 1 in assay [13]; 1403 in assay [1]; 1025 in [15]. Further, the EC50 in assay [14] was found to be 14 nM; in assay [2] it was 3370 nM; in assay [3] it was 2.4 nM; in assay [16] it was 2460 nM; in [17], 9 nM; in assay [18], 13 nM. The EC50 in assay [19] was determined as 38 nM; in assay [20], 22 nM; in [21] it was 15 nM; in assay [22], 1940 nM; in assay [23], 13 nM; in assay [24] it was 114 nM. The EC50 worked out at 1340 nM in [25] and 25.7 µM in assay [26].
Consider `CCC[C@]1(CC(=O)O)OCCc2c1[nH]c1c(C)ccc(C#N)c21`, for which, in assay [1], the “Ratio IC50” value was determined as 2. In addition, in assay [2], the 50% effective concentration (EC50) worked out at 7840 nM.
Turning to `CC(C)(C)NC(=O)N[C@H](C(=O)N1C[C@H]2[C@@H]([C@H]1C(=O)NC(CC1CCC1)C(=O)C(N)=O)C2(C)C)C(C)(C)C` (some centres undefined) [BOCEPREVIR], the “Ratio IC50” value in assay [4] was 1; in assay [5] it was 7; in [6], 1; in assay [7] it was 1; in assay [8] it was 1; in assay [9] it was 1. Also, the “Ratio IC50” value is 3 in assay [10]; 4 in assay [11]; 5 in [12]; 1 in assay [13]; 10 in assay [1]; 8 in [15]. The EC50 in assay [14] worked out at 608 nM; in assay [2], 1580 nM; in assay [3] it was 165 nM; in [16], 1330 nM; in assay [17], 377 nM; in [18], 3170 nM. Also, the EC50 stood at 2150 nM in assay [19]; 1940 nM in assay [20]; 738 nM in assay [21]; 781 nM in [22]; 647 nM in assay [23]; 795 nM in [24]. The EC50 in assay [25] was 4360 nM; in assay [26] it was 0.821 µM.
In the case of `C[C@@]1(O)[C@H](O)[C@@H](CO)O[C@H]1n1ccc(N)nc1=O`, in assay [1], the “Ratio IC50” value came out at 1. For the same molecule, the EC50 in assay [2] is 1620 nM; in [3] it was 1140 nM.
With `CC(=O)c1cc(F)c(Br)cc1NCC(=O)Nc1ccccc1C(=O)O`, the EC50 in assay [1] (Hepatitis C virus, Con1, Huh-7, 72 h) is greater than 30 nM; in [2] it was greater than 15000 nM; in [3], 499 nM.

These data come from ChEMBL document CHEMBL1687718, “Selection and characterization of hepatitis C virus replicons dually resistant to the polymerase and protease inhibitors HCV-796 and boceprevir (SCH 503034)” (Antimicrob Agents Chemother, 2009).
